Read-outs that look alike come from different tables or passages of the source.
Experiments:
Type in all cases: cell-based
[1] = test system: T-Rex 293 cells having increased expression of estrogen receptor alpha protein; experiment: Cellular growth inhibition assay, T-Rex 293 cells, (+) doxycycline; details: T-Rex 293 cells with doxycycline (increased ERα expression), 72 hours, CellTiter-Glo, read-out: (+) Dox GI50
Outline: (§1)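 Viability read-out was CellTiter-Glo 2.0 luminescence after 72 h compound exposure, normalized to zero luminescence and fitted by four-parameter regression to give GI50. Cells were an ERα-inducible T-Rex 293 clone cultured with or without 3 ng/mL doxycycline in charcoal-stripped, phenol red-free medium.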

[2] = test system: T-Rex 293 cells lacking increased expression of estrogen receptor alpha protein; experiment: Cellular growth inhibition assay, T-Rex 293 cells, (−) doxycycline; details: T-Rex 293 cells without doxycycline (lacking increased ERα expression), 72 hours, CellTiter-Glo, read-out: (−) Dox GI50
Outline: as §1

[3] = test system: MCF7 cells (ATCC #HTB-22); experiment: Cellular growth inhibition assay, MCF7 cells purchased from ATCC; details: Table 8-A, MCF7 cells purchased from ATCC, six days, CellTiter-Glo, read-out: GI50
Outline: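 MCF7 cells in RPMI 1640 with 10% FBS and 0.2 U/ml insulin, seeded at 1,500 cells/well (ATCC) or 225 cells/well (ECACC). Compounds added 24 h later, then 6 days at 37° C. Viability by CellTiter-Glo 2.0 luminescence. GI50 from four-parameter fit.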

Compound | GI50 ([1]; T-REx-293, 72 h, Table 7-A) [nM] | GI50 ([2]; T-REx-293, 72 h, Table 7-A) [nM] | GI50 ([3]; Homo sapiens, MCF7, 144 h) [nM] | GI50 ([1]; T-REx-293, 72 h, Table 7-B) [nM] | GI50 ([2]; T-REx-293, 72 h, Table 7-B) [nM] | GI50 ([1]; Table 7-A) [nM] | GI50 ([2]; Table 7-A) [nM] | GI50 [3] [nM]
Cc1sc2c(c1C)C(c1ccc(N3CCC(CN4CCN(c5ccc(C6=C(c7ccccc7Cl)CCCc7cc(C(=O)O)ccc76)c(F)c5)CC4)CC3)cc1)=N[C@@H](C)c1nnc(C)n1-2 [IV-48] | < 50 | 500 to 2500 | < 50 | – | – | – | – | –
Cc1sc2c(c1C)C(c1ccc(N3CCC(CN4CCN(c5ccc(C6=C(c7ccccc7Cl)CCCc7cc(C(=O)O)ccc76)c(F)c5)CC4)CC3)cc1)=N[C@@H](Cc1ncco1)c1nnc(C)n1-2 [IV-49] | < 50 | 500 to 2500 | < 50 | – | – | – | – | –
Cc1sc2c(c1C)C(c1ccc(N3CC4(CC(CN5CCN(c6ccc(C7=C(c8ccccc8)CCCc8cc(O)ccc87)cc6)CC5)C4)C3)cc1)=N[C@@H](C)c1nnc(C)n1-2 [IV-50] | < 50 | 500 to 2500 | < 50 | – | – | – | – | –
Cc1sc2c(c1C)C(c1ccc(N3CCC(O)(CN4CCN(c5ccc(C6=C(c7cccc(Cl)c7)CCCc7cc(C(=O)O)ccc76)cc5)CC4)CC3)cc1)=N[C@@H](C)c1nnc(C)n1-2 [IV-51] | < 50 | 500 to 2500 | < 50 | – | – | – | – | –
Cc1sc2c(c1C)C(c1ccc(N3CCC(O)(CN4CCN(c5ccc(C6=C(c7ccc(Cl)c(Cl)c7)CCCc7cc(C(=O)O)ccc76)cc5)CC4)CC3)cc1)=N[C@@H](C)c1nnc(C)n1-2 [IV-52] | 50 to 500 | 500 to 2500 | 50 to 500 | – | – | – | – | –
Cc1sc2c(c1C)C(c1ccc(N3CCC(O)(CN4CCN(c5ccc(C6=C(c7cccc(Cl)c7Cl)CCCc7cc(C(=O)O)ccc76)cc5)CC4)CC3)cc1)=N[C@@H](C)c1nnc(C)n1-2 [IV-53] | < 50 | 500 to 2500 | < 50 | – | – | – | – | –
Cc1sc2c(c1C)C(c1ccc(N3CC(CN4CCN(CC5CN(c6ccc(C7=C(c8ccccc8Cl)CCCc8cc(C(=O)O)ccc87)cc6)C5)CC4)C3)cc1)=N[C@@H](C)c1nnc(C)n1-2 [IV-54] | < 50 | 50 to 500 | < 50 | – | – | – | – | –
COc1ccc(-c2sc3cc(OC)ccc3c2C(=O)c2ccc(OCCN3CCC4(CC3)CC(Oc3ccc(C5=N[C@@H](Cc6ncco6)c6nnc(C)n6-c6sc(C)c(C)c65)cc3)C4)cc2)cc1 [IV-55] | < 50 | 500 to 2500 | < 50 | – | – | – | – | –
Cc1sc2c(c1C)C(c1ccc(N3CC4(CCC(CN5CCC(c6ccc(C7=C(c8ccccc8Cl)CCCc8cc(C(=O)O)ccc87)cc6)CC5)CC4)C3)cc1)=N[C@@H](C)c1nnc(C)n1-2 [IV-56] | < 50 | 50 to 500 | < 50 | – | – | – | – | –
Cc1sc2c(c1C)C(c1ccc(N3CCC(O)(CN4CCN(c5ccc(C6=C(c7ccc(Cl)cc7)CCCc7cc(C(=O)O)ccc76)cc5)CC4)CC3)cc1)=N[C@@H](C)c1nnc(C)n1-2 [IV-57] | < 50 | 500 to 2500 | < 50 | – | – | – | – | –
Cc1sc2c(c1C)C(c1ccc(N3CC4(CC(CN5CCN(c6ccc(C7=C(c8ccccc8Cl)CCCc8cc(C(=O)O)ccc87)c(F)c6)CC5)C4)C3)cc1)=N[C@@H](C)c1nnc(C)n1-2 [IV-58] | < 50 | 500 to 2500 | < 50 | – | – | – | – | –
Cc1sc2c(c1C)C(c1ccc(N3CC4(CC(CN5CCN(c6ccc(C7=C(c8ccccc8Cl)CCCc8cc(C(=O)O)ccc87)cc6)CC5)C4)C3)cc1)=N[C@@H](C)c1nnc(C)n1-2 [IV-59] | < 50 | 500 to 2500 | < 50 | – | – | – | – | –
Cc1sc2c(c1C)C(c1ccc(N3CCC(O)(CN4CCN(c5ccc(C6=C(c7ccccc7Cl)CCCc7cc(C(=O)O)ccc76)c(F)c5)CC4)CC3)cc1)=N[C@@H](Cc1ncco1)c1nnc(C)n1-2 [IV-60] | < 50 | 50 to 500 | < 50 | – | – | – | – | –
Cc1sc2c(c1C)C(c1ccc(N3CCC(O)(CN4CCN(c5ccc(C6=C(c7ccccc7Cl)CCCc7cc(C(=O)O)ccc76)cc5)CC4)CC3)c(Cl)c1)=N[C@@H](C)c1nnc(C)n1-2 [IV-61] | < 50 | 500 to 2500 | < 50 | – | – | – | – | –
Cc1sc2c(c1C)C(c1ccc(C3CN(CC4CC(CN5CC(c6ccc(C7=C(c8ccccc8)CCCc8cc(C(=O)O)ccc87)cc6)C5)C4)C3)cc1)=N[C@@H](C)c1nnc(C)n1-2 (stereo partly drawn) [IV-62] | < 50 | 500 to 2500 | < 50 | – | – | – | – | –
Cc1sc2c(c1C)C(c1ccc(N3CCC(O)(CN4CCN(c5ccc(C6=C(c7ccccc7)CCCc7cc(B(O)O)ccc76)cc5)CC4)CC3)cc1)=N[C@@H](C)c1nnc(C)n1-2 [IV-63] | < 50 | 500 to 2500 | < 50 | – | – | – | – | –
Cc1cc(C2=N[C@@H](C)c3nnc(C)n3-c3sc(C)c(C)c32)ccc1N1CC(CN2CCN(CC3CN(c4ccc(C5=C(c6ccc(Cl)cc6)CCCc6cc(C(=O)O)ccc65)cc4)C3)CC2)C1 [IV-64] | 50 to 500 | 500 to 2500 | < 50 | – | – | – | – | –
COc1cc(N2CCN(CC3(O)CCN(c4ccc(C5=N[C@@H](C)c6nnc(C)n6-c6sc(C)c(C)c65)cc4)CC3)CC2)ccc1C1=C(c2ccccc2Cl)CCCc2cc(C(=O)O)ccc21 [IV-65] | – | – | 50 to 500 | < 50 | 500 to 2500 | – | – | –
COc1ccc(-c2sc3cc(OC)ccc3c2C(=O)c2ccc(OCCN3CCC(CCCCOc4ccc(C5=N[C@@H](Cc6ncco6)c6nnc(C)n6-c6sc(C)c(C)c65)cc4)CC3)cc2)cc1 [V-1] | 50 to 500 | 50 to 500 | 50 to 500 | – | – | – | – | –
COc1ccc(-c2sc3cc(OC)ccc3c2C(=O)c2ccc(OCCN3CCC4(CC3)CC(Oc3ccc(C5=N[C@@H](Cc6ncco6)c6nnc(C)n6-c6sc(C)c(C)c65)cc3)C4)cc2)cc1 [V-2] | – | – | – | – | – | 50 to 500 | 500 to 2500 | 50 to 500
COc1ccc(-c2sc3cc(OC)ccc3c2C(=O)c2ccc(OCCN3CCC(CCOc4ccc(C5=N[C@@H](Cc6ncco6)c6nnc(C)n6-c6sc(C)c(C)c65)cc4)CC3)cc2)cc1 [V-3] | 50 to 500 | 50 to 500 | 50 to 500 | – | – | – | – | –
CC1=C(c2c(F)cc(F)cc2F)[C@@H](c2ccc(OCCN3CCCC4(CCN(c5ccc(C6=N[C@@H](C)c7nnc(C)n7-c7sc(C)c(C)c76)cc5)CC4)C3)cc2)Oc2ccc(O)cc21 [V-4] | 500 to 2500 | 500 to 2500 | 50 to 500 | – | – | – | – | –
CC1=C(c2c(F)cc(F)cc2F)[C@H](c2ccc(OCCN3CCCC4(CCN(c5ccc(C6=N[C@@H](C)c7nnc(C)n7-c7sc(C)c(C)c76)cc5)CC4)C3)cc2)Oc2ccc(O)cc21 [V-5] | 50 to 500 | 500 to 2500 | 50 to 500 | – | – | – | – | –
CC1=C(c2c(F)cc(F)cc2F)C(c2ccc(OCCN3CCCN(c4ccc(C5=N[C@@H](C)c6nnc(C)n6-c6sc(C)c(C)c65)cc4)CC3)cc2)Oc2ccc(O)cc21 (stereo partly drawn) [V-6] | 50 to 500 | 500 to 2500 | 50 to 500 | – | – | – | – | –
CC1=C(c2c(F)cc(F)cc2F)[C@H](c2ccc(OCCN3CCC[C@]4(CCN(c5ccc(C6=N[C@@H](C)c7nnc(C)n7-c7sc(C)c(C)c76)cc5)C4)C3)cc2)Oc2ccc(O)cc21 [V-7] | < 50 | 50 to 500 | 50 to 500 | – | – | – | – | –
CC1=C(c2c(F)cc(F)cc2F)[C@H](c2ccc(OCCN3CCC[C@@]4(CCN(c5ccc(C6=N[C@@H](C)c7nnc(C)n7-c7sc(C)c(C)c76)cc5)C4)C3)cc2)Oc2ccc(O)cc21 [V-8] | < 50 | 500 to 2500 | 50 to 500 | – | – | – | – | –
CC1=C(c2c(F)cc(F)cc2F)[C@@H](c2ccc(OCCN3CCC[C@]4(CCN(c5ccc(C6=N[C@@H](C)c7nnc(C)n7-c7sc(C)c(C)c76)cc5)C4)C3)cc2)Oc2ccc(O)cc21 [V-9] | > 2500 | 500 to 2500 | 50 to 500 | – | – | – | – | –
